Results taken from patent publication US20110033393A1, “Hydrazone Compounds and Their Use” (priority 2009, published 2011).

Target: T1, human TRPM5 ion channel (Homo sapiens, UniProt Q9NZQ8)
T1 sequence (Q9NZQ8 1-1165): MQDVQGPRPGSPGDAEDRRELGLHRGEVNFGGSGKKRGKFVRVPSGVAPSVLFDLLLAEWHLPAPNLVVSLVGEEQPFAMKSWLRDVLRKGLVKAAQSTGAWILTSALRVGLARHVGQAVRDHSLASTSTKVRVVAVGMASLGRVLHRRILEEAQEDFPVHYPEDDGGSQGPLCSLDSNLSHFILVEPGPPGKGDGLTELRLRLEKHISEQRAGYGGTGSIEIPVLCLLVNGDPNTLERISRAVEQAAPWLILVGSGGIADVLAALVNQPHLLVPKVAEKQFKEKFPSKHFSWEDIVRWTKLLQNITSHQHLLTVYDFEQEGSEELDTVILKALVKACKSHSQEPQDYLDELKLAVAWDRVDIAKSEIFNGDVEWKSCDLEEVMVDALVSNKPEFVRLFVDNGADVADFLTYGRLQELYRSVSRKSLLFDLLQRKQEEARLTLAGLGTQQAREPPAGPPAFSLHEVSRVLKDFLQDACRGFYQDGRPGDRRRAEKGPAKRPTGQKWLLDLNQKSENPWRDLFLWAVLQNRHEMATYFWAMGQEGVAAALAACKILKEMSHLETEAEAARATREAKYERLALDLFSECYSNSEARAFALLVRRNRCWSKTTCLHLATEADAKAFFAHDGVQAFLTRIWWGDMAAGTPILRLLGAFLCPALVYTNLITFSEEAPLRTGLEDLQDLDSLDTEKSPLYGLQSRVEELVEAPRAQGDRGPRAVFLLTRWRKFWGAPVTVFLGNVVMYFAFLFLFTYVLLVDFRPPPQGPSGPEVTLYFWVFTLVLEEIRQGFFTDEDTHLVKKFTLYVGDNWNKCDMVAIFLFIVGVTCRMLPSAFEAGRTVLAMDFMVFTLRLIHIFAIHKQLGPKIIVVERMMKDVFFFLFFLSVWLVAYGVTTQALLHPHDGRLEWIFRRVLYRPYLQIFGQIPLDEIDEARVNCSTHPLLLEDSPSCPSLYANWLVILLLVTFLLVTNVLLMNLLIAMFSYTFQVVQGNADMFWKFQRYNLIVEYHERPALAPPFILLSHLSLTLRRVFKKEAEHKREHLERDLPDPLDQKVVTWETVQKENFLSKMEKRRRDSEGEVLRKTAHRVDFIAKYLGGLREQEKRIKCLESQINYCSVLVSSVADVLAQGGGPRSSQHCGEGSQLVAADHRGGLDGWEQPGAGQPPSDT
Assay: FLIPR-based assay for membrane potential and calcium mobilization (TRPM5 inhibiting activity)
Assay type: cell-based
Settings: live cells, 30° C., read-out: hTrpM5 IC50
Protocol: The activity of compounds of the present invention on human TRPM5 ion channel was measured using the FLIPR-based (fluorescent imaging plate reader) assay for membrane potential and calcium mobilization described in U.S. Patent Application Publication No. 2008/0249189 A1 in live cells, wherein the assay is performed at 30° C. Determinations of affinity and efficacy were derived from measurements of TRPM5 activity over a range of compound concentrations. The concentration range was achieved by 10 serial dilutions (either 2-fold or 3-fold decrements) from a maximum concentration of no greater that 100 μM. Curver fitting was performed on the resulting data to yield concentration-effect functions, from which the half-maximal inhibitory concentration (IC50) was derived for all the tested compounds. The IC50 values were considered to be accurate reflections of affinity between the compounds and TRPM5.
Representative compounds of the present invention have been tested in the FLIPR assay for TRPM5 inhibiting activity, which is described in detail above.

SMILES	IC50
O=C(N/N=C/c1cc(Cl)c2ncccc2c1)[C@@H]1C[C@H]1c1cccc(Cl)c1 (relative stereo) [Example 28, trans-2-(3-Chlorophenyl)-N′-((8-chloroquinolin-6-yl)methylene)cyclopropanecarbohydrazide]	650 nM
Cc1cn(CCC(=O)N/N=C/c2ccc3ncccc3c2)c2ccccc12 [Example 59, 3-(3-methyl-1H-indol-1-yl)-N′-(quinolin-6-ylmethylene)-propanehydrazide]	340 nM
COc1ccc(/C=N/NC(=O)[C@@H]2C[C@H]2c2ccc3ccccc3n2)cc1OC (relative stereo) [Example 36, trans-N′-(3,4-Dimethoxybenzylidene)-2-(quinolin-2-yl)cyclopropanecarbohydrazide]	930 nM
COc1ccc(/C=N/NC(=O)CSc2cccc(Cl)c2)cc1OC [Example 66, 2-(3-chlorophenylthio)-N′-(3,4-dimethoxybenzylidene)acetohydrazide]	40 nM
